# Laboratory results as given in paper PMC10360995, “Discovery of 3-((3-amino-1H-indazol-4-yl)ethynyl)-N-(4-((4-ethylpiperazin-1-yl)methyl)-3-(trifluoromethyl)phenyl)benzamide (AKE-72), a potent Pan-BCR-ABL inhibitor including the T315I gatekeeper resistant mutant” (Journal of Enzyme Inhibition and Medicinal Chemistry, 2023).
# Where two headings read alike, the source gives them in different places.
# Experiments:
# [1] = target: BCR-ABL^WT (Homo sapiens, UniProt P00519); assay: BCR-ABL WT kinase inhibition assay; assay type: biochemical; conditions: for IC50: 10-dose duplicate, 3-fold serial dilution, 10 µM ATP; for fold superior potency against BCR-ABL^WT versus lead indazole II: relative to II
# [2] = test system: HL-60(TB); assay: cells; conditions: Homo sapiens; for GI50: HL-60, read-out: GI50 HL-60(TB); for CC50: HL-60, read-out: LC50 (half-maximal lethal concentration) HL-60(TB)
# [3] = test system: HL-60(TB); conditions: five-dose assay
# [4] = test system: MOLT-4; assay: NCI SRB anti-leukemic assay; conditions: for GI50 / CC50: Homo sapiens; for GI50: MOLT-4, read-out: GI50 MOLT-4; for CC50: MOLT-4, read-out: LC50 (half-maximal lethal concentration) MOLT-4; for TGI (total growth inhibition) MOLT-4: five-dose assay
# [5] = test system: CCRF-CEM; assay: NCI SRB anti-leukemic assay; conditions: for GI50 / CC50: Homo sapiens, CCRF-CEM; for GI50: read-out: GI50 CCRF-CEM; for CC50: read-out: LC50 (half-maximal lethal concentration) CCRF-CEM; for TGI (total growth inhibition) CCRF-CEM: five-dose assay; for GI % CCRF-CEM: single dose 10 µM
# [6] = test system: SR; assay: NCI SRB anti-leukemic assay; conditions: for GI50 / CC50: Homo sapiens, SR; for GI50: read-out: GI50 SR; for CC50: read-out: LC50 (half-maximal lethal concentration) SR; for TGI (total growth inhibition) SR: five-dose assay
# [7] = test system: RPMI-8226; assay: NCI SRB anti-leukemic assay; conditions: for GI50 / CC50: Homo sapiens; for GI50: RPMI-8226, read-out: GI50 RPMI-8226; for CC50: RPMI-8226, read-out: LC50 (half-maximal lethal concentration) RPMI-8226; for TGI (total growth inhibition) RPMI-8226: five-dose assay; for GI % RPMI-8226: single dose 10 µM
# [8] = test system: K-562; assay: NCI SRB anti-leukemic assay; conditions: for GI50 / CC50: Homo sapiens; for GI50: K562, read-out: GI50 K-562; for CC50: K562, read-out: LC50 (half-maximal lethal concentration) K-562
# [9] = target: T1, CYP1A2 (Homo sapiens, UniProt P05177); assay: Cytochrome P450 inhibition assay (Vivid CYP450 kit); assay type: in vitro ADME
# T1 construct: purchased ThermoFisher (Vivid CYP450 screening kit), run at RBC
# T1 sequence (P05177 whole entry): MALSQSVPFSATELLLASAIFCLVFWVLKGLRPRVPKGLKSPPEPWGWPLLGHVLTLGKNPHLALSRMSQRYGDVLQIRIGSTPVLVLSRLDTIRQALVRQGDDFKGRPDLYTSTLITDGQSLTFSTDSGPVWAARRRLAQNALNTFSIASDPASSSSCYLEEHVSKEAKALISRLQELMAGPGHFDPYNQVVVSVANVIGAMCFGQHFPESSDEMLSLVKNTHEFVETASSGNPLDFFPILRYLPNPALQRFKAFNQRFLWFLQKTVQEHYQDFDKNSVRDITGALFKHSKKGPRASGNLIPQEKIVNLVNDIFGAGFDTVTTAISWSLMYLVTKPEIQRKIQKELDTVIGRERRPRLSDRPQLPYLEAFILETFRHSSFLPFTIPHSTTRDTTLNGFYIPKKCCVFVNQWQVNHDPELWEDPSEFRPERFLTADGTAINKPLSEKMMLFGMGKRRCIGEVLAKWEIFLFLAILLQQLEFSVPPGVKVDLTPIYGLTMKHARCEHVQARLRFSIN
# From the text: (§1) Azole derivatives are well known for their ability to inhibit cytochrome P450 isozymes.
# (§2) 1.8. Cytochrome P450 Assay
# (§3) The binding site was defined based
# [10] = target: T2, CYP2C9 (Homo sapiens, UniProt P11712); assay: as above; assay type: in vitro ADME; conditions: recombinant CYP2C9 (Vivid CYP450 screening kit), single-dose duplicate, read-out: CYP inhibition % CYP2C9
# T2 construct: purchased ThermoFisher (Vivid CYP450 screening kit), run at RBC
# T2 sequence (P11712 whole entry): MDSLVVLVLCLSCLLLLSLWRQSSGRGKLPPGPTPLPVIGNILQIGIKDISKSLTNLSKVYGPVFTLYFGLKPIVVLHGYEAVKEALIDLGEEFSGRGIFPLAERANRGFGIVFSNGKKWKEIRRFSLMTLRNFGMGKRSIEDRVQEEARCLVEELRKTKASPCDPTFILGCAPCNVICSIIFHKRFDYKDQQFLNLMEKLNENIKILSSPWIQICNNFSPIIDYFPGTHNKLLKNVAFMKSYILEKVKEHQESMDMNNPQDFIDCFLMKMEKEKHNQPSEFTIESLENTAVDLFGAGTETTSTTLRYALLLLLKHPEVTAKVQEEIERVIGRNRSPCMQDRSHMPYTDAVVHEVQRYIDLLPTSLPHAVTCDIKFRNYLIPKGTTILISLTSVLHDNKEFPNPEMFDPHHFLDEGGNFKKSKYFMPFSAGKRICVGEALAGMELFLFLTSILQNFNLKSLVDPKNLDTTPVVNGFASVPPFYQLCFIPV
# From the text: as §1, §2, §3
# [11] = target: T3, CYP2D6 (Homo sapiens, UniProt P10635); assay: as above; assay type: in vitro ADME
# T3 construct: purchased ThermoFisher (Vivid CYP450 screening kit), run at RBC
# T3 sequence (P10635 whole entry): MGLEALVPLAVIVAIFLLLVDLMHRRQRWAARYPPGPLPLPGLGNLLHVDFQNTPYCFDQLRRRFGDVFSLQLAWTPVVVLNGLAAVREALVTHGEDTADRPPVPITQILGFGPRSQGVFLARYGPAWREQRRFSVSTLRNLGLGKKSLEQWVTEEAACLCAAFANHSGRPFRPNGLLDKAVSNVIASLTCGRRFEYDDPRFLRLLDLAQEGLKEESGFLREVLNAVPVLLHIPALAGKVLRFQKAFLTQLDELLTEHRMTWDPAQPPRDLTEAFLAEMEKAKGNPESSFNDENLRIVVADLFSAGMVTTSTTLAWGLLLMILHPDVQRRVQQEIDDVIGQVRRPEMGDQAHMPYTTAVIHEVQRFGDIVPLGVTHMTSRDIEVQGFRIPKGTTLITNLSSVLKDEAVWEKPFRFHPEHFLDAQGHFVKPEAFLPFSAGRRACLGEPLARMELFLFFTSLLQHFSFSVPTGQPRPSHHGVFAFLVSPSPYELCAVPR
# From the text: as §1, §2, §3
# [12] = target: T4, CYP3A4 (Homo sapiens, UniProt P08684); assay: as above; assay type: in vitro ADME; conditions: single-dose duplicate, read-out: CYP inhibition % CYP3A4
# T4 construct: purchased ThermoFisher (Vivid CYP450 screening kit), run at RBC
# T4 sequence (P08684 whole entry): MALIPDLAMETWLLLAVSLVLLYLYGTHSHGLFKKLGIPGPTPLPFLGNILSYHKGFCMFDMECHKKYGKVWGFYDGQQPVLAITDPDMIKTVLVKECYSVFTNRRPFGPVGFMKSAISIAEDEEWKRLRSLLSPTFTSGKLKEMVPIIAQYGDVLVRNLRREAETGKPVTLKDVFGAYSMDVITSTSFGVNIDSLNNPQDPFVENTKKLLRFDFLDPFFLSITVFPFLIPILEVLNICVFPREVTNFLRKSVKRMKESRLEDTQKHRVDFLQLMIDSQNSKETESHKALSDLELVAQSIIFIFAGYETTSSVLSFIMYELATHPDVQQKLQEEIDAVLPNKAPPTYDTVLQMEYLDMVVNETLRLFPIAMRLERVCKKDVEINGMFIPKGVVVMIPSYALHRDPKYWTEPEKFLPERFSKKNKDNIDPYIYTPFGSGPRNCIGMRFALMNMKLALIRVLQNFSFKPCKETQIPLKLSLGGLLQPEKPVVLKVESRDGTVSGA
# From the text: as §1, §2, §3
# [13] = target: FGFR1 (Homo sapiens, UniProt P11362); assay: Kinase panel profiling at 50 nM; assay type: biochemical; conditions: range given for ten kinases together
# FGFR1, sequence (P11362 22-822): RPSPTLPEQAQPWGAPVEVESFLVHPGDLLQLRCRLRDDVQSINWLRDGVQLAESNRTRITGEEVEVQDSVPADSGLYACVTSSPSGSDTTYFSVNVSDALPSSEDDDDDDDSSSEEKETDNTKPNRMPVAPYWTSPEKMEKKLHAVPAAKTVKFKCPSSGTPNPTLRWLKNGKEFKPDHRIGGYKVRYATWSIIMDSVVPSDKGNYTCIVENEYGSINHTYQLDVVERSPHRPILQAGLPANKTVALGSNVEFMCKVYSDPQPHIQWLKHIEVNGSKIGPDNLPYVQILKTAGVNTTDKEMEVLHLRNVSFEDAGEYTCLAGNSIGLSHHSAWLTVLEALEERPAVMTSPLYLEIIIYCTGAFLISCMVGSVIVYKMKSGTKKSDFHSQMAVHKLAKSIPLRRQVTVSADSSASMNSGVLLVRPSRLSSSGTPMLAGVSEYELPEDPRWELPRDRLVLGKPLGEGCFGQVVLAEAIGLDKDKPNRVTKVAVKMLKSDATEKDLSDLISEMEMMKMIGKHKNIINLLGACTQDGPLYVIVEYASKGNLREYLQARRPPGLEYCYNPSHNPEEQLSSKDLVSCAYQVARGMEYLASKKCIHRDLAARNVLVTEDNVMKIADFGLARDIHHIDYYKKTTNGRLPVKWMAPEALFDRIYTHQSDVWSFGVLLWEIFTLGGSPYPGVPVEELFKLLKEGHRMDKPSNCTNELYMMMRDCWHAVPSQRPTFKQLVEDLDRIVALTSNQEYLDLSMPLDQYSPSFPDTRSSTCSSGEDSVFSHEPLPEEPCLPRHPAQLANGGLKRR
# Method: (§4) Figure 3. Enzyme inhibition percentage (relative to DMSO controls) of compound 5 (0.05 µM) against a panel of 18 kinases.
# [14] = target: VEGFR2 (Homo sapiens, UniProt P35968); assay: Kinase panel profiling at 50 nM; assay type: biochemical; conditions: range given for ten kinases together
# Method: as §4
# [15] = target: LCK (Homo sapiens, UniProt P06239); assay: Kinase panel profiling at 50 nM; assay type: biochemical; conditions: range given for ten kinases together
# Method: as §4
# [16] = target: c-Kit (Homo sapiens, UniProt P10721); assay: Kinase panel profiling at 50 nM; assay type: biochemical; conditions: range given for ten kinases together
# Method: as §4
# [17] = target: PDGFRβ (Homo sapiens, UniProt P09619); assay: Kinase panel profiling at 50 nM; assay type: biochemical; conditions: range given for ten kinases together
# Method: as §4
# [18] = target: LYN (Homo sapiens, UniProt P07948); assay: Kinase panel profiling at 50 nM; assay type: biochemical; conditions: range given for ten kinases together
# Method: as §4
# [19] = target: FYN (Homo sapiens, UniProt P06241); assay: Kinase panel profiling at 50 nM; assay type: biochemical; conditions: range given for ten kinases together
# Method: as §4
# [20] = target: c-Src (Homo sapiens, UniProt P12931); assay: Kinase panel profiling at 50 nM; assay type: biochemical; conditions: range printed for c-Src and FMS together
# c-Src, sequence (P12931 whole entry): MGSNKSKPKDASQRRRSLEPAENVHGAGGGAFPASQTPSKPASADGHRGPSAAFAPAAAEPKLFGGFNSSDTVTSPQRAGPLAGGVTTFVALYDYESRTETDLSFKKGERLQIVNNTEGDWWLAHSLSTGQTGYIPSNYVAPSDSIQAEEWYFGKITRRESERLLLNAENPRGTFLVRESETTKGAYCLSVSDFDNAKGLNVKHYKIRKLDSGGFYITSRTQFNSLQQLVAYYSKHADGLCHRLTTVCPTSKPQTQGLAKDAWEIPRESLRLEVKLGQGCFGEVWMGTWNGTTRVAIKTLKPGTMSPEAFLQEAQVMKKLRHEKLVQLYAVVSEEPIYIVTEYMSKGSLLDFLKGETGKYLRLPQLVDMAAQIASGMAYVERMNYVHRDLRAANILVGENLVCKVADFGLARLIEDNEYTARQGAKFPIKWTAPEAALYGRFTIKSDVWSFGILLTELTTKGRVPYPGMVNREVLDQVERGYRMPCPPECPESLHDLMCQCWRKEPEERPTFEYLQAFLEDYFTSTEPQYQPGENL
# Method: as §4
# [21] = test system: the other investigated kinases (panel of 18 kinases); assay: Kinase panel profiling at 50 nM; assay type: biochemical
# Method: as §4
# [22] = target: RET (Homo sapiens, UniProt P07949); assay: Kinase panel profiling at 50 nM; assay type: biochemical; conditions: range given for ten kinases together
# Method: as §4
# [23] = target: FMS (Homo sapiens, UniProt P07333); assay: Kinase panel profiling at 50 nM; assay type: biochemical; conditions: range printed for c-Src and FMS together
# Method: as §4
# [24] = target: YES (Homo sapiens, UniProt P07947); assay: Kinase panel profiling at 50 nM; assay type: biochemical; conditions: range given for ten kinases together
# YES, sequence (P07947 whole entry): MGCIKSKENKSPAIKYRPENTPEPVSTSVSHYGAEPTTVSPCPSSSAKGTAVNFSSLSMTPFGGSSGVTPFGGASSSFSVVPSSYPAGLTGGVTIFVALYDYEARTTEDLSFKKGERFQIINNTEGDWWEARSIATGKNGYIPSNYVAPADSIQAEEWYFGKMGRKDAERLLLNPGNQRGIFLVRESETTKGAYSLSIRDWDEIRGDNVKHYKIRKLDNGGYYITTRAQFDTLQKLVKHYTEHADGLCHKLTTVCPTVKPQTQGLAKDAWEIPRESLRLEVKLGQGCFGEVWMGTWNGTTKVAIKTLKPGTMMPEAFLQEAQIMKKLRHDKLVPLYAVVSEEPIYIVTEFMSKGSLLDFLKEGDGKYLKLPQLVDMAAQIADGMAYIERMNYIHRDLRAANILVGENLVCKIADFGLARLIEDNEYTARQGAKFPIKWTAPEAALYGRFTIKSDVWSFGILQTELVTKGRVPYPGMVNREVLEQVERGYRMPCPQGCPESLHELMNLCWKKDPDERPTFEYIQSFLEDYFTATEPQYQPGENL
# Method: as §4
# [25] = target: FLT3 (Homo sapiens, UniProt P36888); assay: Kinase panel profiling at 50 nM; assay type: biochemical; conditions: range given for ten kinases together
# FLT3, sequence (P36888 27-993): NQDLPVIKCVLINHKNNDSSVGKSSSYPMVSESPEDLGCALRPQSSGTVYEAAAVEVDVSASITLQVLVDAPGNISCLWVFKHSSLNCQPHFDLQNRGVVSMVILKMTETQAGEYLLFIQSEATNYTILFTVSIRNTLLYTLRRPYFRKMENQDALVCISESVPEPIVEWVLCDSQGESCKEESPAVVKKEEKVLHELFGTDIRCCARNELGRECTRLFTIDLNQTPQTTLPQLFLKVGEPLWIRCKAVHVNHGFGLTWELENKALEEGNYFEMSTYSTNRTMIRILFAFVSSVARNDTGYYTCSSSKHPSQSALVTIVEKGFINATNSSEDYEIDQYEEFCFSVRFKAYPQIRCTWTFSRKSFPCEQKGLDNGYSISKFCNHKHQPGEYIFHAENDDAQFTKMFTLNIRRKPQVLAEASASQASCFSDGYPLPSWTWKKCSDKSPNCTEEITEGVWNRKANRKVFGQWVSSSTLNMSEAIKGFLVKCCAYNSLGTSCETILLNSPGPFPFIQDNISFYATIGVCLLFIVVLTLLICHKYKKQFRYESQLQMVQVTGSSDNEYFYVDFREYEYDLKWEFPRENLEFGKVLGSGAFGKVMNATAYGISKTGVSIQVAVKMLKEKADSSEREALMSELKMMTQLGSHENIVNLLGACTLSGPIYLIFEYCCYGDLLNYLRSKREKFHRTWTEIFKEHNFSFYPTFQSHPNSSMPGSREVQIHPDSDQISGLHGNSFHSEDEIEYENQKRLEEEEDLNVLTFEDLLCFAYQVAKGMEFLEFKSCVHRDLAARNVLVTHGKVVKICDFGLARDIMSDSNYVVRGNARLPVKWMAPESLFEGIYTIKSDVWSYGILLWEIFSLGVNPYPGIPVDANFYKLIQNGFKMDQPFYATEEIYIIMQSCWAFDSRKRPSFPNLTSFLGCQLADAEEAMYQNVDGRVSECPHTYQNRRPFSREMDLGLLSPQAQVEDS
# Method: as §4
# [26] = target: ABL^Q252H (Homo sapiens, UniProt P00519, Q252H); assay: ABL mutant enzymatic assay; assay type: biochemical; conditions: 10-dose, 3-fold dilution from 20 μM, 10 μM ATP
# From the text: (§5) Compound 5 (AKE-72) was further profiled against a number of clinically relevant ABL mutants, including E255K, F317I, H396P, M351T, and Q252H (Table 2). This outcome confirmed the ability of compound 5 to potently suppress the activity of the clinically relevant ABL mutants in single-digit nanomolar IC50 values.
# [27] = target: ABL^F317I (Homo sapiens, UniProt P00519, F317I); assay: ABL mutant enzymatic assay; assay type: biochemical; conditions: 10-dose, 3-fold dilution from 20 μM, 10 μM ATP
# From the text: as §5
# [28] = target: ABL^M351T (Homo sapiens, UniProt P00519, M351T); assay: ABL mutant enzymatic assay; assay type: biochemical; conditions: 10-dose, 3-fold dilution from 20 μM, 10 μM ATP
# From the text: as §5
# [29] = target: ABL^H396P (Homo sapiens, UniProt P00519, H396P); assay: ABL mutant enzymatic assay; assay type: biochemical; conditions: 10-dose, 3-fold dilution from 20 μM, 10 μM ATP
# From the text: as §5
# [30] = target: ABL^E255K (Homo sapiens, UniProt P00519, E255K); assay: ABL mutant enzymatic assay; assay type: biochemical; conditions: 10-dose, 3-fold dilution from 20 μM, 10 μM ATP
# From the text: as §5
# [31] = test system: Ba/F3 mouse pro-B cells; assay: Cellular proliferation assay; assay type: cell-based; conditions: BaF3, read-out: GI50 Ba/F3 (mouse pro-B cell)
# From the text: (§6) We also tested AKE-72 against BCR-ABL-positive and BCR-ABL-negative cell lines.
# as §2, §3
# [32] = test system: K562 (Bcr-Abl positive); assay: Cellular proliferation assay; assay type: cell-based; conditions: Homo sapiens, K562, read-out: GI50 K562 (Bcr-Abl positive)
# From the text: as §6, §2, §3
# [33] = test system: U937 (Bcr-Abl negative); assay: Cellular proliferation assay; assay type: cell-based; conditions: Homo sapiens, U-937, read-out: GI50 U937 (Bcr-Abl negative)
# From the text: as §6, §2, §3
smiles,measurement,setting,value
CN1CCN(Cc2ccc(C(=O)Nc3cccc(C#Cc4cccc5[nH]nc(N)c45)c3)cc2C(F)(F)F)CC1 [Compound 4a],IC50,[1],< 0.51 nM
same,fold superior potency against BCR-ABL^WT versus lead indazole II,[1],> 300 folds
same,GI50,[2],278 nM
same,CC50,[2],7330 nM
same,TGI (total growth inhibition) HL-60(TB),[3],1600 nM
same,GI50,[4],494 nM
same,CC50,[4],7570 nM
same,TGI (total growth inhibition) MOLT-4,[4],2280 nM
same,GI50,[5],1220 nM
same,CC50,[5],8300 nM
same,TGI (total growth inhibition) CCRF-CEM,[5],3180 nM
same,GI % CCRF-CEM,[5],L (lethal effect (% GI > 100))
same,GI50,[6],1100 nM
same,CC50,[6],> 100000 nM
same,TGI (total growth inhibition) SR,[6],3350 nM
same,GI50,[7],1220 nM
same,CC50,[7],9520 nM
same,TGI (total growth inhibition) RPMI-8226,[7],3260 nM
same,GI % RPMI-8226,[7],L (lethal effect (% GI > 100))
same,GI50,[8],< 10 nM
same,CC50,[8],6030 nM
same,TGI (total growth inhibition) K-562,[8]; five-dose assay,1020 nM
CCN1CCN(Cc2ccc(C(=O)Nc3cccc(C#Cc4cccc5[nH]nc(N)c45)c3)cc2C(F)(F)F)CC1 [Compound 4b],IC50,[1],0.64 ± 0.0099 nM
same,GI50,[2],593 nM
same,TGI (total growth inhibition) HL-60(TB),[3],2610 nM
same,GI50,[4],1420 nM
same,TGI (total growth inhibition) MOLT-4,[4],3570 nM
same,GI50,[5],1600 nM
same,CC50,[5],8160 nM
same,TGI (total growth inhibition) CCRF-CEM,[5],3620 nM
same,GI % CCRF-CEM,[5],96.4%
same,GI50,[6],1780 nM
same,CC50,[6],> 100000 nM
same,TGI (total growth inhibition) SR,[6],4590 nM
same,GI50,[7],1590 nM
same,CC50,[7],9710 nM
same,TGI (total growth inhibition) RPMI-8226,[7],3920 nM
same,GI % RPMI-8226,[7],L (lethal effect (% GI > 100))
same,GI50,[8],< 1000 nM
same,TGI (total growth inhibition) K-562,[8]; five-dose assay,1140 nM
"CCN1CCN(Cc2ccc(NC(=O)c3cccc(C#Cc4cccc5[nH]nc(N)c45)c3)cc2C(F)(F)F)CC1 [Compound 5, 3-((3-amino-1H-indazol-4-yl)ethynyl)-N-(4-((4-ethylpiperazin-1-yl)methyl)-3-(trifluoromethyl)phenyl)benzamide]",IC50,[9],> 10000 nM
same,inhibition at 10 µM,"[9]; human, recombinant CYP1A2 (Vivid CYP450 screening kit), 10 µM, single-dose duplicate, read-out: CYP inhibition % CYP1A2",9.88 ± 0.09%
same,inhibition at 10 µM,[10],50.67 ± 0.075%
same,IC50,[11],> 10000 nM
same,inhibition at 10 µM,"[11]; human, recombinant CYP2D6 (Vivid CYP450 screening kit), 10 µM, single-dose duplicate, read-out: CYP inhibition % CYP2D6",13.92 ± 0.06%
same,inhibition at 10 µM,[12]; Vivid CYP450 screening kit (CYP3A4 isozyme),90.6%
same,inhibition at 10 µM,[12]; recombinant CYP3A4 (Vivid CYP450 screening kit),96.57 ± 0.065%
same,IC50,[1],< 0.51 nM
same,fold superior potency against BCR-ABL^WT versus lead indazole II,[1],> 300 folds
same,inhibition at 0.05 µM,[13],83.9 to 99.3%
same,inhibition at 0.05 µM,[14],83.9 to 99.3%
same,inhibition at 0.05 µM,[15],83.9 to 99.3%
same,inhibition at 0.05 µM,[16],83.9 to 99.3%
same,inhibition at 0.05 µM,[17],83.9 to 99.3%
same,inhibition at 0.05 µM,[18],83.9 to 99.3%
same,inhibition at 0.05 µM,[19],83.9 to 99.3%
same,inhibition at 0.05 µM,[20],64.5 to 73%
same,inhibition of the other investigated kinases,[21],no inhibition
same,inhibition at 0.05 µM,[22],83.9 to 99.3%
same,inhibition at 0.05 µM,[23],64.5 to 73%
same,inhibition at 0.05 µM,[24],83.9 to 99.3%
same,inhibition at 0.05 µM,[25],83.9 to 99.3%
same,GI50,[2],97.9 nM
same,CC50,[2],5170 nM
same,TGI (total growth inhibition) HL-60(TB),[3],1040 nM
same,GI50,[4],227 nM
same,CC50,[4],5130 nM
same,TGI (total growth inhibition) MOLT-4,[4],1160 nM
same,IC50,[26],3.88 nM
same,IC50,[27],3.12 nM
same,IC50,[28],3.44 nM
same,IC50,[29],< 1.02 nM
same,IC50,[30],8.98 nM
same,GI50,[5],436 nM
same,CC50,[5],> 100000 nM
same,TGI (total growth inhibition) CCRF-CEM,[5],3040 nM
same,GI50,[31],4000 ± 1170 nM
same,GI50,[32],5.9 nM
same,GI50,[33],1900 ± 61 nM
same,GI50,[6],238 nM
same,CC50,[6],> 100000 nM
same,TGI (total growth inhibition) SR,[6],732 nM
same,GI50,[7],488 nM
same,CC50,[7],> 100000 nM
same,TGI (total growth inhibition) RPMI-8226,[7],2660 nM
same,GI50,[8],< 10 nM
same,CC50,[8],5250 nM
same,TGI (total growth inhibition) K-562,[8]; five-dose assay,154 nM
same,TGI K-562,[8]; five-dose assay,154 nM
